# In paper PMC10441804, “Insect fungal pathogens secrete a cell wall-associated glucanase that acts to help avoid recognition by the host immune system” (PLOS Pathogens, 2023):
# Molecular target: T1, BbEng1 (Beauveria bassiana, UniProt J4W7P1)
# T1 construct: gene BBA_04753; full precursor 588 aa, 21-residue signal peptide removed; GH16 domain 22-343; expressed in Pichia pastoris GS115 (pPIC9K), purified, detected by anti-His tag
# Assay: glucose release, glucose oxidase method
# Format: biochemical
# Conditions: pH 6.0 (50 mM sodium acetate buffer), 37 °C, 1 h
# T1 sequence (J4W7P1 entry or part of it): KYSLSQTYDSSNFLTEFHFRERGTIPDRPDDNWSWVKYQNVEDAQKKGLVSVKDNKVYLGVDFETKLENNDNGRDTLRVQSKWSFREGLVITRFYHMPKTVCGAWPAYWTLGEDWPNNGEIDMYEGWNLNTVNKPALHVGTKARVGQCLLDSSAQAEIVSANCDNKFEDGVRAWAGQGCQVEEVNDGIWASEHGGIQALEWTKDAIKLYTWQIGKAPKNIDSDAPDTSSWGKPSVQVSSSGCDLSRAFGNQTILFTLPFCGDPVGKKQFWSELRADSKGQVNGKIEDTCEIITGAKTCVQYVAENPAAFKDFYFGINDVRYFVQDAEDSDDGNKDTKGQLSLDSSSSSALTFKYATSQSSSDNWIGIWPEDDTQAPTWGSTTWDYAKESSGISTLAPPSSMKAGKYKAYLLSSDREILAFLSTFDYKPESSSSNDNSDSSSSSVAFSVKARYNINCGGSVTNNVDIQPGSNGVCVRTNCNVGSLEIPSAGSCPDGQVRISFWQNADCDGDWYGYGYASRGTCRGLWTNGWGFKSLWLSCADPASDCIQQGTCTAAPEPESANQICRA
compound,measurement,value
OC[C@H]1O[C@@H](O[C@@H]2[C@@H](O)[C@H](O[C@@H]3[C@@H](O)[C@H](O[C@H]4[C@H](O)[C@@H](CO)OC(O)[C@@H]4O)O[C@H](CO)[C@H]3O)O[C@H](CO)[C@H]2O)[C@H](O)[C@@H](O)[C@@H]1O (stereo partly shown) [laminaritetraose],"glucose release, glucose oxidase method","Measurement of glucanase activity indicated release of reducing sugar from laminaritetraose (β-1,3-glucose)"
